Laboratory results from patent publication US20260151375A1, “CDK2 INHIBITORS AND METHODS OF USING THE SAME” (Cedilla Therapeutics, Inc., priority 2022, published 2026).
Like-named read-outs stand apart in the source and are kept apart here.

Key:
[1] = test system: Kuramochi cells; experiment: IncuCyte Kuramochi Assay (cell proliferation); assay type: cell-based; settings: Kuramochi cells labeled with mApple-H2B, cell count, read-out: IncuCyte - Kuramochi RB-WT: IC50
Description: IncuCyte® assay was used to measure the effect of disclosed compounds on cell proliferation. Fluorescent microscopy images of cells were taken immediately after compound treatment and 72 hours later. Image analysis software was used to obtain cell counts as a function of compound concentration. Kuramochi cells labeled with mApple-H2B were seeded on 384-well assay-ready plates. Plates were placed in an IncuCyte® (Sartorius) and scanned at 0 and 72 hours. IncuCyte® software was used to count the number of fluorescent nuclei in each well. The fold change in cell count from 0 to 72 hours in wells treated with increasing compounds concentrations (10 pts, ½ log dilution, 20 μM top concentration) was normalized to DMSO control wells. The normalized cell counts were fit with dose response curves and a […] was calculated.

[2] = molecular target: T1, CDK2/Cyclin E1 (Homo sapiens, UniProt P24941); experiment: Caliper Assay (LabChip EZ Reader mobility shift assay), inhibition of CDK2/Cyclin E1 activity; assay type: biochemical; settings: 2.5 nM CDK2/Cyclin E1(14-475), 100 μM ATP, 30 min preincubation; read-out: Caliper Assay (CDK2/CCNE1): IC50
T1 construct: purchased 14-475
Description: Inhibition of CDK2/Cyclin E1 activity in the presence of compounds of the present disclosure was evaluated using a Caliper LabChip® EZ Reader mobility shift assay. In the assay, activated CDK2/Cyclin E1 catalyzes the phosphorylation of a fluorescently tagged peptide 5-FAM-QSPKKG-CONH2 (PerkinElmer, FL Peptide 18) which induces a difference in capillary electrophoresis mobility. The peptide substrate and product were measured, and the conversion ratio was used to determine the inhibition (as % activity and IC50 values) of CDK2/Cyclin E1. Reactions contained 50 mM HEPES pH 7.5, 10 mM MgCl2, 1 mM EDTA, 2 mM DTT, 0.01% Brij35, 0.5 mg/mL BSA, 0.1% DMSO, 2.5 nM CDK2/Cyclin E1(14-475), 100 μM ATP, and 1.5 μM fluorescent peptide substrate.
Dose titrations of inhibitors in 100% DMSO were combined with 3.25 nM CDK2/Cyclin E1(14-475) and 130 μM of ATP in reaction buffer. The mixtures were incubated for 30 minutes before the addition of fluorescent peptide substrate to initiate the kinase reaction. The final conditions were 2.5 nM CDK2/Cyclin E1(14-475), 100 μM ATP, and 1.5 μM fluorescent peptide. The reactions were stopped after 100 minutes with the addition of EDTA (6 mM final EDTA concentration). The stopped reactions were analyzed on a Caliper LabChip© EZ Reader II. The conversion ratios were normalized to yield % activity, plotted against compound concentration, and fit to a four-parameter equation to determine the IC50 for each compound.

IC50 [2] | SMILES | IC50 ([1]; 72 h) | IC50 ([1]; 72 hours)
 | Cc1cc(C)n(C(C)c2nc(C3CN(C(=O)c4cnn(Cc5ccccc5)c4)CC34CN(C(=O)[C@H]3CC3(C)C)C4)no2)n1 (single isomer, unassigned) [I-2] | 5 to 10 µM | 
0.01 to 0.1 µM | CC(c1nc(C2CN(C(=O)c3cncs3)CC23CN(C(=O)[C@H]2CC2(C)C)C3)no1)n1ccc(C2CCCC2)n1 (single isomer, unassigned) [I-36 1st] | > 10 µM | 
0.01 to 0.1 µM | CC(c1nc(C2CN(C(=O)c3cncs3)CC23CN(C(=O)[C@H]2CC2(C)C)C3)no1)n1ccc(C2CCCC2)n1 (single isomer, unassigned) [I-36 4th] |  | > 10 µM
≤ 0.01 µM | CC(c1nc(C2CN(C(=O)c3cncs3)CC23CN(C(=O)[C@H]2CC2(C)C)C3)no1)n1ccc(C2CCCC2)n1 (single isomer, unassigned) [I-36 5th] |  | > 10 µM
> 10 µM | CC1(C)CC1C(=O)N1CC2(CN(C(=O)c3cncs3)CC2(F)c2nnc(C(F)(F)c3ccc(Cl)c(Cl)c3)o2)C1 (single isomer, unassigned) [I-38 1st] | > 10 µM | 
1 to 10 µM | CC1(C)C[C@@H]1C(=O)N1CC2(CN(C(=O)c3cncs3)CC2(F)c2nnc(C(F)(F)c3ccc(Cl)c(Cl)c3)o2)C1 (single isomer, unassigned) [I-38 2nd] | > 10 µM | 
> 10 µM | CC1(C)C[C@@H]1C(=O)N1CC2(CN(C(=O)c3cncs3)CC2(F)c2nnc(C(F)(F)c3ccc(Cl)c(Cl)c3)o2)C1 (single isomer, unassigned) [I-38 3rd] |  | > 10 µM
0.1 to 1 µM | CC1(C)C[C@@H]1C(=O)N1CC2(CN(C(=O)c3cnccn3)CC2c2nnc(C(F)(F)c3ccc(Cl)c(Cl)c3)o2)C1 (single isomer, unassigned) [I-45 1st] | > 10 µM | 
> 10 µM | O=C(c1onc2ccccc12)N1CC(c2nnc(C(F)(F)c3ccc(Cl)c(Cl)c3)o2)C2(C1)CN(C(=O)[C@H]1CC1(F)F)C2 (single isomer, unassigned) [I-151 1st] | > 10 µM | 
1 to 10 µM | O=C(c1onc2ccccc12)N1CC(c2nnc(C(F)(F)c3ccc(Cl)c(Cl)c3)o2)C2(C1)CN(C(=O)[C@H]1CC1(F)F)C2 (single isomer, unassigned) [I-151 2nd] |  | > 10 µM
0.1 to 1 µM | CC1(C)C[C@@H]1C(=O)N1CC2(CN(C(=O)c3cnn(Cc4ccccc4)c3)CC2c2noc(Cc3ccc(Cl)cc3)n2)C1 (some centres unmarked) [I-1] | 5 to 10 µM | 
1 to 10 µM | CCO[C@H]1C[C@@H](c2nc(C3CN(C(=O)c4cnn(Cc5ccccc5)c4)CC34CN(C(=O)[C@H]3CC3(C)C)C4)no2)C1 (some centres unmarked) [I-3] | > 10 µM | 
1 to 10 µM | CC1(C)C[C@@H]1C(=O)N1CC2(CN(C(=O)c3cnn(Cc4ccccc4)c3)CC2c2nnc(Cc3ccc(Cl)c(Cl)c3)o2)C1 (some centres unmarked) [I-4] |  | > 10 µM
1 to 10 µM | CC1(C)C[C@@H]1C(=O)N1CC2(CN(C(=O)c3cnn(Cc4ccccc4)c3)CC2c2nnc(Nc3ccc(Br)cc3)o2)C1 (stereo partly drawn) [I-5, (1-benzyl-1H-pyrazol-4-yl)(8-(5-((4-bromophenyl)amino)-1,3,4-oxadiazol-2-yl)-2-((S)-2,2-dimethylcyclopropane-1-carbonyl)-2,6-diazaspiro[3.4]octan-6-yl)methanone] | > 10 µM | 
1 to 10 µM | CC1(C)C[C@@H]1C(=O)N1CC2(CN(C(=O)c3cnn(Cc4ccccc4)c3)CC2c2nnc(Cc3ccc(Cl)c(Cl)c3)[nH]2)C1 (stereo partly drawn) [I-6, (1-benzyl-1H-pyrazol-4-yl)(8-(5-(3,4-dichlorobenzyl)-4H-1,2,4-triazol-3-yl)-2-((S)-2,2-dimethylcyclopropane-1-carbonyl)-2,6-diazaspiro[3.4]octan-6-yl)methanone] | 5 to 10 µM | 
0.1 to 1 µM | CC1(C)C[C@@H]1C(=O)N1CC2(CN(C(=O)c3cnn(Cc4ccccc4)c3)CC2c2cc(NC(=O)C3CC3)on2)C1 (stereo partly drawn) [I-7, N-(3-(6-(1-benzyl-1H-pyrazole-4-carbonyl)-2-((S)-2,2-dimethylcyclopropane-1-carbonyl)-2,6-diazaspiro[3.4]octan-8-yl)isoxazol-5-yl)cyclopropanecarboxamide] | 5 to 10 µM | 
0.1 to 1 µM | CC1(C)C[C@@H]1C(=O)N1CC2(CN(C(=O)c3cnn(Cc4ccccc4)c3)CC2c2ncc(Cc3ccc(Cl)cc3)o2)C1 (stereo partly drawn) [I-8, (1-benzyl-1H-pyrazol-4-yl)(8-(5-(4-chlorobenzyl)oxazol-2-yl)-2-((S)-2,2-dimethylcyclopropane-1-carbonyl)-2,6-diazaspiro[3.4]octan-6-yl)methanone] | 5 to 10 µM | 
1 to 10 µM | Cc1cc(C)n(C(C)c2nc(C3CN(C(=O)c4cncs4)CC34CN(C(=O)[C@H]3CC3(C)C)C4)no2)n1 (stereo partly drawn) [I-9, (8-(5-(1-(3,5-dimethyl-1H-pyrazol-1-yl)ethyl)-1,2,4-oxadiazol-3-yl)-2-((S)-2,2-dimethylcyclopropane-1-carbonyl)-2,6-diazaspiro[3.4]octan-6-yl)(thiazol-5-yl)methanone] | > 10 µM | 
> 10 µM | Cc1ccc(CNC(=O)c2coc(C3CN(C(=O)c4cnn(Cc5ccccc5)c4)CC34CN(C(=O)[C@H]3CC3(C)C)C4)n2)nn1 (some centres unmarked) [I-10] | > 10 µM | 
1 to 10 µM | C[C@@H](NC(=O)c1coc(C2CN(C(=O)c3cnn(Cc4ccccc4)c3)CC23CN(C(=O)[C@H]2CC2(C)C)C3)n1)c1ccccc1 (some centres unmarked) [I-11] | ≤ 0.5 µM | 
1 to 10 µM | CC1(C)C[C@@H]1C(=O)N1CC2(CN(C(=O)c3cnn(Cc4ccccc4)c3)CC2c2nnc(CC3CCOCC3)o2)C1 (some centres unmarked) [I-12] | > 10 µM | 
1 to 10 µM | Cc1cc(C)n(Cc2nnc(C3CN(C(=O)c4cnn(Cc5ccccc5)c4)CC34CN(C(=O)[C@H]3CC3(C)C)C4)o2)n1 (some centres unmarked) [I-13] | > 10 µM | 
1 to 10 µM | CC1(C)C[C@@H]1C(=O)N1CC2(CN(C(=O)c3cnn(Cc4ccccc4)c3)CC2c2nnc(Cc3cncnc3)o2)C1 (stereo partly drawn) [I-14, (1-benzyl-1H-pyrazol-4-yl)(2-((S)-2,2-dimethylcyclopropane-1-carbonyl)-8-(5-(pyrimidin-5-ylmethyl)-1,3,4-oxadiazol-2-yl)-2,6-diazaspiro[3.4]octan-6-yl)methanone] | > 10 µM | 
1 to 10 µM | CC1(C)C[C@@H]1C(=O)N1CC2(CN(C(=O)c3cnn(Cc4ccccc4)c3)C[C@@H]2c2nnc(Cc3ccc(Cl)c(Cl)c3)o2)C1 [I-16, (1-benzyl-1H-pyrazol-4-yl)((R)-8-(5-(3,4-dichlorobenzyl)-1,3,4-oxadiazol-2-yl)-2-((S)-2,2-dimethylcyclopropane-1-carbonyl)-2,6-diazaspiro[3.4]octan-6-yl)methanone] | > 10 µM | 
0.1 to 1 µM | CC1(C)C[C@@H]1C(=O)N1CC2(CN(C(=O)c3cnn(Cc4ccccc4)c3)CC2c2nnc(CCC3CCC(F)(F)CC3)o2)C1 (some centres unmarked) [I-17] | > 10 µM | 
0.1 to 1 µM | Cc1cc(C)n(C(C)c2nnc(C3CN(C(=O)c4cnn(Cc5ccccc5)c4)CC34CN(C(=O)[C@H]3CC3(C)C)C4)o2)n1 (some centres unmarked) [I-18] | > 10 µM | 
1 to 10 µM | CC1(C)C[C@@H]1C(=O)N1CC2(CN(C(=O)c3cnn(Cc4ccccc4)c3)CC2c2nnc(CC3CCC(F)(F)CC3)o2)C1 (some centres unmarked) [I-20] | > 10 µM | 
